Results as given in US20240218022A1, “ANTI-VISTA MACROCYCLIC PEPTIDES AND COMPOSITIONS” (BRISTOL-MYERS SQUIBB COMPANY, priority 2022, published 2024).
Positions of bridges follow the written chain, without caps; N, C: chain ends. Non-standard residues stand in square brackets, D forms with d. Residues, ends and D or L forms follow the SMILES beside them. Phe(3-Me) = Cc1cccc(C[C@H](N)C(=O)O)c1; Ahp(2) = CCCCC[C@H](N)C(=O)O; NHexGly = CCCCCCNCC(=O)O; Nle = CCCC[C@H](N)C(=O)O; Orn = NCCC[C@H](N)C(=O)O

Biological target: T1, mouse VISTA (mVISTA) (Mus musculus, UniProt Q9D659)
T1 construct: expressed in transfected cells; host or cells: Human embryonic kidney 293T cells
T1 sequence (Q9D659 33-308): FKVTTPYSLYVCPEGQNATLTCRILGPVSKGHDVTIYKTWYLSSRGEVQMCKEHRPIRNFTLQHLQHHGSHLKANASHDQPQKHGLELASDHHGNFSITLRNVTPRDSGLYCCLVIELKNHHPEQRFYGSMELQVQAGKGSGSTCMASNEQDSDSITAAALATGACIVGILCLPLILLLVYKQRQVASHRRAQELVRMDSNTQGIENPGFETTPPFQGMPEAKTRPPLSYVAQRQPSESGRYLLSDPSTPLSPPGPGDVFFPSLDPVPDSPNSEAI
Test: Cell-Based Binding High-Content Assay For mVISTA (HC CBA mVISTA)
Settings: the 19th table, scaffold drawing 22; read-out: HC CBA mVISTA IC50
Method in brief: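 Read-out: Alexa 647–streptavidin signal imaged on fixed, Hoechst-stained mVISTA-293T cells, with IC50 taken from a four-parameter logistic curve. Compounds competed with 2 nM biotinylated peptide for 30 min at room temperature, tested under both no-wash and wash (1 h compound, media exchange, 1 h) formats.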

SMILES	IC50
CCCCCCN1CC(=O)N[C@@H](Cc2ccc(O)cc2)C(=O)N[C@@H](CCCC)C(=O)N[C@@H](CC(=O)O)C(=O)N[C@@H](CCCN)C(=O)N[C@@H](CC(C)C)C(=O)N[C@@H](CCCCC)C(=O)N2CCC[C@H]2C(=O)N[C@@H](C(C)C)C(=O)N[C@@H](CC(=O)O)C(=O)N[C@H](C(=O)N[C@@H](CO)C(N)=O)CSCC(=O)N[C@@H](Cc2cccc(C)c2)C(=O)N[C@@H](Cc2c[nH]c3ccccc23)C(=O)N[C@@H](CC(=O)O)C1=O [compound 1427] ({CH2CO}-[Phe(3-Me)]WD[NHexGly]Y[Nle]D[Orn]L[Ahp(2)]PVDCS-NH2; thioether N-14)	9.4 nM
CCCCCCN1CC(=O)N[C@@H](Cc2ccc(O)cc2)C(=O)N[C@@H](CCCC)C(=O)N[C@@H](CC(=O)O)C(=O)N[C@@H](CCCNC(=N)N)C(=O)N[C@@H](CC(C)C)C(=O)N[C@@H](CCCCC)C(=O)N2CCC[C@H]2C(=O)N[C@@H](C(C)C)C(=O)N[C@@H](CC(=O)O)C(=O)N[C@H](C(=O)N[C@@H](CO)C(N)=O)CSCC(=O)N[C@@H](Cc2cccc(C)c2)C(=O)N[C@@H](Cc2c[nH]c3ccccc23)C(=O)N[C@@H](CC(=O)O)C1=O [compound 1428] ({CH2CO}-[Phe(3-Me)]WD[NHexGly]Y[Nle]DRL[Ahp(2)]PVDCS-NH2; thioether N-14)	13.6 nM
CCCCCCN1CC(=O)N[C@@H](Cc2ccc(O)cc2)C(=O)N[C@@H](CCCC)C(=O)N[C@@H](CC(=O)O)C(=O)N[C@@H](CCCN)C(=O)N[C@@H](CC(C)C)C(=O)N[C@@H](CCCCC)C(=O)N2CCC[C@H]2C(=O)N[C@@H](C(C)C)C(=O)N[C@@H](CC(=O)O)C(=O)N[C@H](C(=O)N[C@@H](CC(=O)O)C(N)=O)CSCC(=O)N[C@@H](Cc2cccc(C)c2)C(=O)N[C@@H](Cc2ccc(O)cc2)C(=O)N[C@@H](CC(=O)O)C1=O [compound 1430] ({CH2CO}-[Phe(3-Me)]YD[NHexGly]Y[Nle]D[Orn]L[Ahp(2)]PVDCD-NH2; thioether N-14)	6.2 nM

The next lines start with the values.

IC50	SMILES
2.5 nM	CCCCCCN1CC(=O)N[C@@H](Cc2ccc(O)cc2)C(=O)N[C@@H](CCCC)C(=O)NCC(=O)N[C@@H](CCCNC(=N)N)C(=O)N[C@@H](CC(C)C)C(=O)N[C@@H](CCCCC)C(=O)N2CCC[C@H]2C(=O)N[C@@H](C(C)C)C(=O)N[C@@H](CC(=O)O)C(=O)N[C@H](C(=O)NCC(=O)O)CSCC(=O)N[C@@H](Cc2cccc(C)c2)C(=O)N[C@@H](Cc2ccc(O)cc2)C(=O)N[C@@H](CC(=O)O)C1=O [compound 1431] ({CH2CO}-[Phe(3-Me)]YD[NHexGly]Y[Nle]GRL[Ahp(2)]PVDCG-OH; thioether N-14)
3 nM	CCCCCCN1CC(=O)N[C@@H](Cc2ccc(O)cc2)C(=O)N[C@@H](CC(C)C)C(=O)N[C@@H](CC(N)=O)C(=O)N[C@@H](CCCNC(=N)N)C(=O)N[C@@H](CC(C)C)C(=O)N[C@@H](CCCCC)C(=O)N2CCC[C@H]2C(=O)N[C@@H](C(C)C)C(=O)N[C@@H](C(C)C)C(=O)N[C@H](C(=O)NCC(=O)O)CSCC(=O)N[C@@H](Cc2cccc(C)c2)C(=O)N[C@@H](Cc2ccc(O)cc2)C(=O)N[C@@H](CC(=O)O)C1=O [compound 1432] ({CH2CO}-[Phe(3-Me)]YD[NHexGly]YLNRL[Ahp(2)]PVVCG-OH; thioether N-14)
20.4 nM	CCCCCCN1CC(=O)N[C@@H](Cc2ccc(O)cc2)C(=O)N[C@@H](CC(C)C)C(=O)N[C@@H](CC(N)=O)C(=O)N[C@@H](CCCNC(=N)N)C(=O)N[C@@H](CC(C)C)C(=O)N[C@@H](CCCCC)C(=O)N2CCC[C@H]2C(=O)N[C@@H](C(C)C)C(=O)N[C@@H](C(C)C)C(=O)N[C@H](C(=O)N[C@@H](CO)C(=O)O)CSCC(=O)N[C@@H](Cc2cccc(C)c2)C(=O)N[C@@H](Cc2ccc(O)cc2)C(=O)N[C@@H](CC(=O)O)C1=O [compound 1434] ({CH2CO}-[Phe(3-Me)]YD[NHexGly]YLNRL[Ahp(2)]PVVCS-OH; thioether N-14)
